# Measurements as given in patent US8163753B2, “2,3-dihydro-6-nitroimidazo (2,1-b) oxazole compounds for the treatment of tuberculosis” (priority 2003, dated 2012).
row,Compound,melting point
1,CC1(Cc2ccc(N3CCC(Oc4ccc(OC(F)(F)F)cc4)CC3)cc2)Cn2cc([N+](=O)[O-])nc2O1 (stereo not drawn),184.9 to 186.8 °C
2,C[C@]1(COc2ccc(CN3CCC(Cc4ccc(OC(F)(F)F)cc4)CC3)cc2)Cn2cc([N+](=O)[O-])nc2O1,172.5 to 174.1 °C
3,CC(C)(C)OC(=O)N1CCCN(c2ccc(-c3ccc(OC[C@@]4(C)Cn5cc([N+](=O)[O-])nc5O4)cc3)cc2)CC1,213.8 to 215.7 °C
4,CC(C)(C)OC(=O)N1CCCN(c2ccc(-c3ccc(OC[C@H]4Cn5cc([N+](=O)[O-])nc5O4)cc3)cc2)CC1,235.5 to 237.5 °C
5,CC1(COc2ccc(N3CCC(COc4ccc(Cl)cc4)CC3)cc2)Cn2cc([N+](=O)[O-])nc2O1 (stereo not drawn),190 to 190.4 °C
6,O=[N+]([O-])c1cn2c(n1)OC(COc1ccc(N3CCC(Cc4ccc(OC(F)(F)F)cc4)CC3)cc1)C2 (stereo not drawn),132.7 to 135 °C
7,CC1(COc2ccc(N3CCN(CC=Cc4ccc(OC(F)(F)F)cc4)CC3)cc2)Cn2cc([N+](=O)[O-])nc2O1 (stereo not drawn),181.1 to 182.2 °C
8,C[C@]1(COc2ccc3nc(N4CCC(=Cc5ccc(OC(F)(F)F)cc5)CC4)ccc3c2)Cn2cc([N+](=O)[O-])nc2O1,193.9 to 195.9 °C
9,C[C@]1(COc2ccc(N3CCC(OCc4ccc(C(F)(F)F)cc4)CC3)cc2)Cn2cc([N+](=O)[O-])nc2O1,217.4 to 219.7 °C
10,O=[N+]([O-])c1cn2c(n1)O[C@@H](COc1ccc(N3CCC(OCc4ccc(OC(F)(F)F)cc4)CC3)cc1)C2,188.3 to 189.4 °C
11,C[C@]1(COc2ccc(N3CCC(CCc4ccc(OC(F)(F)F)cc4)CC3)cc2)Cn2cc([N+](=O)[O-])nc2O1,239.4 to 241.3 °C
12,C[C@]1(COc2ccc(N3CCC(Oc4ccc(OC(F)(F)F)cc4)CC3)nc2)Cn2cc([N+](=O)[O-])nc2O1,185.9 to 186.7 °C
13,O=[N+]([O-])c1cn2c(n1)O[C@@H](COc1ccc(N3CCC(Cc4ccc(OC(F)(F)F)cc4)CC3)cc1)C2,160.5 to 164 °C
14,CN(Cc1ccc(C(F)(F)F)cc1F)C1CCN(c2ccc(OC[C@@]3(C)Cn4cc([N+](=O)[O-])nc4O3)cc2)CC1,197.5 to 199.2 °C
15,CN(Cc1ccccc1C(F)(F)F)C1CCN(c2ccc(OC[C@@]3(C)Cn4cc([N+](=O)[O-])nc4O3)cc2)CC1,189.6 to 190.2 °C
16,O=[N+]([O-])c1cn2c(n1)O[C@@H](COc1ccc(N3CCC(CCc4ccc(OC(F)(F)F)cc4)CC3)cc1)C2,208.9 to 211.7 °C

row,Compound,melting point
1,C[C@]1(COc2ccc(C3CCN(Cc4csc(-c5ccc(C(F)(F)F)cc5)n4)CC3)cc2)Cn2cc([N+](=O)[O-])nc2O1,194.6 to 196.4 °C
2,C[C@]1(COc2ccc(C3CCN(CC=Cc4ccc(C(F)(F)F)cc4)CC3)cc2)Cn2cc([N+](=O)[O-])nc2O1,185.9 to 187.1 °C
3,C[C@]1(COc2ccc(N3CCN(CCOc4ccc(OC(F)(F)F)cc4)CC3)cc2)Cn2cc([N+](=O)[O-])nc2O1,194.8 to 195.6 °C
4,C[C@]1(COc2ccc(N3CCN(Cc4csc(-c5ccc(C(F)(F)F)cc5)n4)CC3)cc2)Cn2cc([N+](=O)[O-])nc2O1,210 to 212.1 °C
5,C[C@]1(COc2ccc(N3CCC(COCc4ccc(C(F)(F)F)cc4)CC3)cc2)Cn2cc([N+](=O)[O-])nc2O1,172.3 to 172.9 °C
6,C[C@]1(COc2ccc(N3CCC(COc4ccc(CCl)cc4)CC3)cc2)Cn2cc([N+](=O)[O-])nc2O1,140.4 to 141.7 °C
7,O=[N+]([O-])c1cn2c(n1)O[C@@H](COc1ccc(N3CCC(COc4ccc(C(F)(F)F)cc4)CC3)cc1)C2,175 to 180 °C
8,C[C@]1(COc2ccc(N3CCC(CCOCc4ccc(C(F)(F)F)cc4)CC3)cc2)Cn2cc([N+](=O)[O-])nc2O1,198 to 199.2 °C
9,C[C@]1(COc2ccc(N3CCN(Cc4ccc(N5CCC(Oc6ccc(OC(F)(F)F)cc6)CC5)cc4)CC3)cc2)Cn2cc([N+](=O)[O-])nc2O1,198.2 to 201.4 °C
10,C[C@]1(COc2ccc(N3CCC(Nc4ccc(Oc5ccc(OC(F)(F)F)cc5)cc4)CC3)cc2)Cn2cc([N+](=O)[O-])nc2O1,198.6 to 201.1 °C (dec.)
11,CN(CCOc1ccc(OC(F)(F)F)cc1)C1CCN(c2ccc(OC[C@@]3(C)Cn4cc([N+](=O)[O-])nc4O3)cc2)CC1,185.7 to 187.7 °C
12,C[C@]1(COc2ccc(N3CCC(N4CCN(c5ccc(OC(F)(F)F)cc5)CC4)CC3)cc2)Cn2cc([N+](=O)[O-])nc2O1,279 to 281 °C
13,C[C@]1(COc2ccc(N3CCC(Nc4cc(Cl)cc(Cl)c4)CC3)cc2)Cn2cc([N+](=O)[O-])nc2O1,122 to 124 °C
14,C[C@]1(COc2ccc(N3CCC(N4CCN(c5ccc(Cl)cc5)CC4)CC3)cc2)Cn2cc([N+](=O)[O-])nc2O1,247 to 249 °C
15,CN(c1ccc(OC(F)(F)F)cc1)C1CCN(C2CCN(c3ccc(OC[C@@]4(C)Cn5cc([N+](=O)[O-])nc5O4)cc3)CC2)CC1,196 to 197 °C
16,CC1(COc2ccc(N3CCC(COCc4ccc(OC(F)(F)F)cc4)CC3)cc2)Cn2cc([N+](=O)[O-])nc2O1 (stereo not drawn),153.1 to 153.7 °C

# Results, then the compound that gave them:
row,melting point,Compound
1,140.2 to 141.7 °C,O=[N+]([O-])c1cn2c(n1)OC(COc1ccc(N3CCC(COCc4ccc(C(F)(F)F)cc4)CC3)cc1)C2 (stereo not drawn)
2,211.6 to 212 °C (dec.),C[C@]1(COc2ccc(N3CCC(COC(=O)Nc4ccc(OC(F)(F)F)cc4)CC3)cc2)Cn2cc([N+](=O)[O-])nc2O1
3,101.3 to 104 °C,C[C@]1(COc2ccc3c(c2)nc(N2CCN(Cc4ccc(OC(F)(F)F)cc4)CC2)n3Cc2ccccc2)Cn2cc([N+](=O)[O-])nc2O1
4,138.5 to 141.9 °C,CN(C(=O)OC(C)(C)C)C1CCN(Cc2ccc(OCC3(C)Cn4cc([N+](=O)[O-])nc4O3)cc2)CC1 (stereo not drawn)
5,153.5 to 154.5 °C,CN(Cc1ccc(N(C)CC=Cc2ccc(C(F)(F)F)cc2)cc1)C[C@@]1(C)Cn2cc([N+](=O)[O-])nc2O1
6,186.9 to 189.5 °C,C[C@]1(COc2ccc(C(=O)NCC(=O)N3CCC(Oc4ccc(OC(F)(F)F)cc4)CC3)cc2)Cn2cc([N+](=O)[O-])nc2O1
7,172.6 to 174.6 °C,CC1(COc2ccc3nc(N4CCN(Cc5ccc(OC(F)(F)F)cc5)CC4)sc3c2)Cn2cc([N+](=O)[O-])nc2O1 (stereo not drawn)
8,191.2 to 192.5 °C,O=[N+]([O-])c1cn2c(n1)OC(COc1ccc(N3CCC(COc4ccc(Cl)cc4)CC3)cc1)C2 (stereo not drawn)
9,171 to 173.8 °C,C[C@]1(COc2ccc(N3CCC(CO)CC3)cc2)Cn2cc([N+](=O)[O-])nc2O1
10,248.8 to 251.5 °C,C[C@]1(COc2ccc(-c3nc(-c4ccc(Cl)cc4)co3)cc2)Cn2cc([N+](=O)[O-])nc2O1
11,184.9 to 185.9 °C,C[C@]1(COc2ccc3nc(N4CCC(Cc5ccc(OC(F)(F)F)cc5)CC4)ccc3c2)Cn2cc([N+](=O)[O-])nc2O1
12,204.8 to 207.9 °C,C[C@]1(COc2ccc3cc(N4CCC(Oc5ccc(OC(F)(F)F)cc5)CC4)ccc3c2)Cn2cc([N+](=O)[O-])nc2O1
13,214.3 to 217.7 °C,C[C@]1(COc2ccc(N3CCC(OCc4ccc(OC(F)(F)F)cc4)CC3)cc2)Cn2cc([N+](=O)[O-])nc2O1
14,207.1 to 211.2 °C,C[C@]1(COc2ccc(N3CCC(Cc4ccc(Cl)cc4)CC3)cc2)Cn2cc([N+](=O)[O-])nc2O1
15,213.7 to 217.4 °C,C[C@]1(COc2ccc(N3CCC(OCC=Cc4ccc(OC(F)(F)F)cc4)CC3)cc2)Cn2cc([N+](=O)[O-])nc2O1
16,134 to 137.9 °C,C[C@]1(COc2ccc(N3CCCN(c4ccc(OC(F)(F)F)cc4)CC3)cc2)Cn2cc([N+](=O)[O-])nc2O1
17,187.4 to 189.8 °C,C[C@]1(COc2ccc(N3CCC(Cc4cccc(OC(F)(F)F)c4)CC3)cc2)Cn2cc([N+](=O)[O-])nc2O1

row,melting point,Compound
1,207.4 to 210 °C,CN(Cc1cc2cc(Cl)ccc2o1)C1CCN(c2ccc(OC[C@@]3(C)Cn4cc([N+](=O)[O-])nc4O3)cc2)CC1
2,213 to 214.9 °C,CN(CC=Cc1ccc(OC(F)(F)F)cc1)C1CCN(c2ccc(OC[C@@]3(C)Cn4cc([N+](=O)[O-])nc4O3)cc2)CC1
3,204.7 to 206.4 °C,C[C@]1(COc2ccc(N3CCN(CC=Cc4ccc(Cl)c(Cl)c4)CC3)cc2)Cn2cc([N+](=O)[O-])nc2O1
4,172.5 to 175.2 °C,CN(CC1CCN(c2ccc(OC(F)(F)F)cc2)CC1)c1ccc(OC[C@@]2(C)Cn3cc([N+](=O)[O-])nc3O2)cc1
5,137.9 to 139.2 °C,CN(c1ccc(OC[C@@]2(C)Cn3cc([N+](=O)[O-])nc3O2)cc1)C1CCN(c2ccc(OC(F)(F)F)cc2)CC1
6,199.7 to 202 °C,C[C@]1(COc2ccc(N3CCN(CC=Cc4ccc(C(F)(F)F)cc4)CC3)cc2)Cn2cc([N+](=O)[O-])nc2O1
7,223.2 to 225.2 °C (dec.),C[C@]1(COc2ccc(N3CCC(COc4ccc(C(F)(F)F)cc4)CC3)cc2)Cn2cc([N+](=O)[O-])nc2O1
8,247.7 to 248.4 °C (dec.),C[C@]1(COc2ccc(-c3ccc(N4CCN(Cc5ccc(C(F)(F)F)cc5)CC4)cc3)cc2)Cn2cc([N+](=O)[O-])nc2O1
9,180.9 to 182.7 °C,CC1(COc2ccc(N3CCC(Cc4ccc(OC(F)(F)F)cc4)CC3)cc2)Cn2cc([N+](=O)[O-])nc2O1 (stereo not drawn)
10,204.8 to 206.7 °C,C[C@]1(COc2ccc(N3CCC(CCOCc4ccc(OC(F)(F)F)cc4)CC3)cc2)Cn2cc([N+](=O)[O-])nc2O1
11,197.6 to 198.2 °C,C[C@]1(COc2ccc(N3CCC(CCOCc4ccc(Cl)cc4)CC3)cc2)Cn2cc([N+](=O)[O-])nc2O1
12,222.6 to 225.1 °C (dec.),C[C@]1(COc2ccc(-c3ccc(N4CCN(Cc5ccc(Cl)c(Cl)c5)CC4)cc3)cc2)Cn2cc([N+](=O)[O-])nc2O1
13,167.4 to 170.2 °C,CN(CCCOc1ccc(OC(F)(F)F)cc1)C1CCN(c2ccc(OC[C@@]3(C)Cn4cc([N+](=O)[O-])nc4O3)cc2)CC1
14,146 to 147.4 °C,C[C@]1(COc2ccc(N3CCC(Nc4ccc(Cl)c(Cl)c4)CC3)cc2)Cn2cc([N+](=O)[O-])nc2O1
15,230.8 to 232 °C,CN(c1ccc(Cl)cc1)C1CCN(C2CCN(c3ccc(OC[C@@]4(C)Cn5cc([N+](=O)[O-])nc5O4)cc3)CC2)CC1
16,222 to 223 °C,CCCc1ccc(NC2CCN(c3ccc(OC[C@@]4(C)Cn5cc([N+](=O)[O-])nc5O4)cc3)CC2)cc1
17,198 to 199 °C,CCCc1ccc(N(C)C2CCN(c3ccc(OC[C@@]4(C)Cn5cc([N+](=O)[O-])nc5O4)cc3)CC2)cc1
